Values quoted from earlier work in patent publication US11896569B2, “Compositions comprising amino acids for use in the treatment of mucositides in neoplasia patients undergoing radiation therapy and/or chemotherapy” (priority 2015, dated 2024).

Key:
mucositis = conditions: 16 grams per day
[1] = system: patients suffering from head and neck cancer

## NC(=O)CC[C@H](N)C(=O)O [glutamine]
mucositis
  treatment/prevention of mucositis: significant results in the treatment/prevention of mucositis were not observed
[1]; between 10 and 26 grams/day
  efficacy for the treatment of mucositis: ineffective
[1]; daily dose of 30 g
  severity of mucositis induced by antitumor treatments: significantly decreases the severity of mucositis
